Publication PMC8596589 (Chembiochem : a European journal of chemical biology, 2021)
Entries after “also recorded” stand apart in the source; their conditions may differ.

What was measured:
[1] = molecular target: T1, Dop (Mycolicibacterium smegmatis, UniProt A0QZ49); assay: ATP competition assay / KM of ATP for Dop; format: biochemical, M. smegmatis
T1 sequence (A0QZ49 1-498): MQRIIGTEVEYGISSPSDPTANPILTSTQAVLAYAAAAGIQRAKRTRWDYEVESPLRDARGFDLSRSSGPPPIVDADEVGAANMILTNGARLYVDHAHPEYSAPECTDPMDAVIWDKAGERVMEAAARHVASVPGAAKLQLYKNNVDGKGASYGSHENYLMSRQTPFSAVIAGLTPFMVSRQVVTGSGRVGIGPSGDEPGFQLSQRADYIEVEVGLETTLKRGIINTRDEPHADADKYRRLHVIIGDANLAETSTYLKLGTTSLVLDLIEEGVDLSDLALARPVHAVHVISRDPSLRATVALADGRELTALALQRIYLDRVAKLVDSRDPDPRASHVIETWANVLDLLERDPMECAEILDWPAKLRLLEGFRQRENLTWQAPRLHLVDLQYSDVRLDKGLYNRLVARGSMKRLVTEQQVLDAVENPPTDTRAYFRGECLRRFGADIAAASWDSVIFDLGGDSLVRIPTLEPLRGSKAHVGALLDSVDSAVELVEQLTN

[2] = molecular target: T1, Dop; assay: Jump-dilution assay; format: biochemical, M. smegmatis
[3] = molecular target: T1, Dop; assay: biochemical; format: biochemical, M. smegmatis
[4] = molecular target: T2, PafA (Mycobacterium tuberculosis, UniProt P9WNU7); format: biochemical, Mtb; conditions: 100 μM inhibitor; 50 nM PafA; 2 hours
T2 sequence (P9WNU7 1-452): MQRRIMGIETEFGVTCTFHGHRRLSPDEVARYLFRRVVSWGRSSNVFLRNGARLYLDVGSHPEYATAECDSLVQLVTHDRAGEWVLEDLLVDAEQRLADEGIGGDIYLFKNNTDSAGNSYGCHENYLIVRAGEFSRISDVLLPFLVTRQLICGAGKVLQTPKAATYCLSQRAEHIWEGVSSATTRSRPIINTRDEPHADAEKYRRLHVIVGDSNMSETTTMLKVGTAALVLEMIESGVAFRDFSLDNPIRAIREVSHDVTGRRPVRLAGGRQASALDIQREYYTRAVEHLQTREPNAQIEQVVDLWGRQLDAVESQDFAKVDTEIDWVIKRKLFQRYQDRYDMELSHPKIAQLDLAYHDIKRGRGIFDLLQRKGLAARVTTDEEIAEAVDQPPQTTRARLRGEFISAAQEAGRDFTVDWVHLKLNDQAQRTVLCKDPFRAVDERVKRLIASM

[5] = molecular target: T1, Dop; format: biochemical, M. smegmatis; conditions: 100 μM inhibitor; 10 nM Dop; 250 nM FabD-Pup; 30 min
[6] = molecular target: T2, PafA; format: biochemical, Mtb; conditions: 100 µM compound; 50 nM PafA; 2 hours
[7] = molecular target: T2, PafA; format: biochemical, Mtb; conditions: 100 µM inhibitor; 250 nM FabD; 50 nM PafA; six hours

Compound	Inhibition of depupylation of FabD-Pup by PafA [4]	Inhibition of pupylation of FabD by PafA (ligase activity) [7]	IC50 [3] [µM]	also measured
Nc1ncnc2c1ncn2[C@@H]1O[C@H](COP(=O)(O)OP(=O)(O)OP(=O)(O)O)[C@@H](O)[C@H]1O [ATP]	–	–	–	Km ([1]; read-out: KM of ATP for Dop, Michaelis-Menten curve of Dop vs. [ATP]): 320 ± 30 µM
COc1cc(/C=C(\C#N)C(=O)c2ccc(O)c(O)c2)cc(I)c1O [Compound 1, I-OMe-Tyrphostin AG538]	partly inhibited	partly inhibited	–	Dop activity after 100-fold dilution (jump-dilution) [2]: Complete restoration of Dop activity; IC50 at 10-fold increased Dop concentration (ratio test) [3]: 0.70 ± 0.03 μM; IC50 at routine Dop concentration (ratio test) ([3]; 30 nM Dop): 0.26 ± 0.06 µM; Inhibition of depupylation of FabD-Pup by Dop [5]: incompletely inhibited; Change of IC50 with ATP concentration ([1]; eight ATP concentrations, 0.1–6.4 mM): did not significantly increase; Inhibition of depupylation of Ino1-Pup by PafA [6]: partially inhibited
N#C/C(=C\c1ccc(O)c(O)c1)C(=O)c1ccc(O)c(O)c1 [Compound 2, Tyrphostin AG538]	completely inhibited; also recorded: fully inhibits; also recorded: efficiently inhibit	completely inhibited; also recorded: fully inhibits; also recorded: efficiently inhibit	–	Inhibition of depupylation of FabD-Pup by Dop [5]: failed to inhibit; also recorded: did not inhibit; also recorded: leaving Dop activity intact; Inhibition of depupylation of Ino1-Pup by PafA [6]: partially inhibited
COc1cc(/C=C(\C#N)C(=O)c2ccccc2)cc(I)c1O [Compound 5a]	–	–	5.4 ± 0.5	–
N#C/C(=C\c1ccccc1)C(=O)c1ccccc1 [Compound 5b]	–	–	> 100	–
COc1cc(/C=C(\C#N)C(=O)c2ccc(O)c(O)c2)ccc1O [Compound 10a]	–	–	> 100	–
COc1cc(/C=C(\C#N)C(=O)c2ccc(O)c(O)c2)cc([N+](=O)[O-])c1O [Compound 10b]	–	–	4.1 ± 0.1	–
COc1cc(/C=C(\C#N)C(=O)c2ccc(O)c(O)c2)cc(Br)c1O [Compound 10i]	partly inhibited	partly inhibited	2.7 ± 0.2	–
N#C/C(=C\c1cc(O)c(O)c(I)c1)C(=O)c1ccc(O)c(O)c1 [Compound 10k]	completely inhibited	completely inhibited	0.29 ± 0.01	Inhibition of depupylation of Ino1-Pup by PafA [6]: fully inhibited
COc1cc(/C=C/C(=O)c2ccccc2)cc(I)c1O [Compound 12]	–	–	29	Decrease in potency compared to 1 ([3]; ratio of IC50 values vs compound 1): 60 fold
COc1cc(/C=C(\C#N)C(O)c2ccccc2)cc(I)c1O (stereo not shown) [Compound 13]	–	–	57	–
COc1cc(CC(C#N)C(O)c2ccccc2)cc(I)c1O (stereo not shown) [Compound 14]	–	–	–	Dop inhibition in the fluorogenic assay (in words) ([3]; Pup(33–63)-Glu(AMC) substrate, highest conc. 100 µM): complete loss of activity
